In patent US20250145596A1, “HETEROCYCLIC GLP-1 AGONISTS” (Gasherbrum Bio, Inc., priority 2022, published 2025):

Biological target: T1, GLP-1 Receptor (Homo sapiens, UniProt P43220)
T1 construct: host or cells: HEK293/CRE-Luc
Experiment: GLP-1R agonist cAMP stimulation assay
Type: cell-based
Details: HEK293/CRE-Luc cell line stably expressing the GLP-1 Receptor; 30 min at 37° C.; cAMP dynamic 2 Kit
Procedure: Activation of GLP-1 receptor is known to stimulate cyclic AMP (cAMP) production in cells which indicates primary coupling to the Gas subunit of the G protein heterotrimeric complex.
To optimize functional activity directed toward Gas coupling, a HEK293/CRE-Luc cell line developed by HDB stably expressing the GLP-1 Receptor was used. 200× concentration of compound working solutions were prepared (Agilent Technologies Bravo) with ½ log serial dilution in 384-well Echo LDV plate (Labcyte, Cat #LP-0200). 50 nL/well 200× concentration of compound working solutions were moved to 384-well white low volume plate (Greiner, Cat #784075) using Labcyte ECHO550. 1×10^5 cells/mL HEK293/GLPlR/CRE-LUC (HD Biosciences) cell suspensions prepared with assay buffer [DPBS containing 0.5 mM IBMX (Sigma, Cat #15879) and 0.1% BSA (GENVIEW, Cat #FA016-100g)], 10 μL cell suspensions were added to each well of previous generated assay plate which already contains 50 nL compound at 200× concentration using ThermoFisher Multidrop Combi (1000 cells/well). Seal the plate and incubate at 37° C. with 5% CO2 for 30 min.
After incubation the cAMP assay signal was generated using cAMP dynamic 2 Kit (Cisbio). 5 μL cAMP-d2 working solution was added to each well, followed with 5 μL Anti-cAMP antibody-cryptate working solution added to each well using ThermoFisher Multidrop Combi. Incubate at room temperature for 1 hour protected from light. Read the fluorescence at 665 and 615 nm with Reader PerkinElmer EnVision.
% Activity=100%×(mean RLU of test sample mean RLU of vehicle control)/(mean RLU of MAX control−mean RLU of vehicle control))

T1 sequence (P43220 24-463): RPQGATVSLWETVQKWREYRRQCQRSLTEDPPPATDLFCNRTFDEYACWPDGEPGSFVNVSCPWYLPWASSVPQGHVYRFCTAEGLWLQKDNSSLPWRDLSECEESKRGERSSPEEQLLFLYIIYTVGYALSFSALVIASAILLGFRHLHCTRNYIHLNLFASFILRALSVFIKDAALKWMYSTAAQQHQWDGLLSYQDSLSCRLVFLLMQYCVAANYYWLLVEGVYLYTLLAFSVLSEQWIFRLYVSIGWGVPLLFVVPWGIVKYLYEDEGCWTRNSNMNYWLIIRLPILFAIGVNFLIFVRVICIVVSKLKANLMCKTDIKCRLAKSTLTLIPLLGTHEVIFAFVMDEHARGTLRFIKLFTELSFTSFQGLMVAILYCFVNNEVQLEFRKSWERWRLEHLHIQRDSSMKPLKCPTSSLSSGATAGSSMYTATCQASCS

**Q.** For `Cc1ccc(C2(C)Oc3cccc(C4CCN(Cc5ncc(-c6nnc(C(F)(F)F)[nH]6)cc5CC5(C#N)CC5)CC4)c3O2)cn1` (stereo not drawn) [Example 11, 1-{[2-({4-[2-Methyl-2-(6-methylpyridin-3-yl)-2H-1,3-benzodioxol-4-yl]piperidin-1-yl}methyl)-5-[5-(trifluoromethyl)-4H-1,2,4-triazol-3-yl]pyridin-3-yl]methyl}cyclopropane-1-carbonitrile], which EC50 is on record?
**A.** The EC50 was under 1 nM.

**Q.** Which EC50 does the source give for `CC1(c2ccc(Cl)cc2F)Oc2cccc(C3CCN(Cc4ncc(-c5nnc(C(F)(F)F)[nH]5)cc4CC4(C#N)CC4)CC3(F)F)c2O1` (stereo not drawn) [Example 22, 1-{[2-({4-[2-(4-chloro-2-fluorophenyl)-2-methyl-2H-1,3-benzodioxol-4-yl]-3,3-difluoropiperidin-1-yl}methyl)-5-[5-(trifluoromethyl)-4H-1,2,4-triazol-3-yl]pyridin-3-yl]methyl}cyclopropane-1-carbonitrile] here?
**A.** Its EC50 is under 1 nM.

**Q.** For `COCC1(Cc2cc(-c3nnc(C(F)(F)F)[nH]3)cnc2CN2CCC(c3cccc4c3OC(C)(c3ccc(Cl)cn3)O4)CC2)CC1` (stereo not drawn) [Example 85], which EC50 is on record?
**A.** The EC50 was 1 to 100 nM.

**Q.** With `CCS(=O)(=O)Cc1cc(-c2nnc(C(F)(F)F)[nH]2)cnc1CN1CCC(c2cccc3c2O[C@@](C)(c2ccc(Cl)cc2F)O3)CC1` [Example 59, 2-({4-[(2S)-2-(4-chloro-2-fluorophenyl)-2-methyl-2H-1,3-benzodioxol-4-yl]piperidin-1-yl}methyl)-3-[(ethanesulfonyl)methyl]-5-[5-(trifluoromethyl)-4H-1,2,4-triazol-3-yl]pyridine] as the compound, how does the EC50 read?
**A.** Its EC50 is under 1 nM.

**Q.** Which EC50 does the source give for `CC1(c2ccc(Cl)cc2Cl)Oc2cccc(C3CCN(Cc4ncc(-c5nnc(C(F)(F)F)[nH]5)cc4CC4(C#N)CC4)CC3)c2O1` (stereo not drawn) [Example 1, 1-{[2-({4-[2-(2,4-dichlorophenyl)-2-methyl-2H-1,3-benzodioxol-4-yl]piperidin-1-yl}methyl)-5-[5-(trifluoromethyl)-4H-1,2,4-triazol-3-yl]pyridin-3-yl]methyl}cyclopropane-1-carbonitrile] here?
**A.** The EC50 was under 1 nM.

**Q.** `C[C@]1(c2ccc(Cl)cc2F)Oc2cccc(C3CCN(Cc4ncc(C(=O)O)cc4CC4(C#N)CC4)CC3)c2O1` [Example 19, (S)-6-((4-(2-(4-chloro-2-fluorophenyl)-2-methylbenzo[d][1,3]dioxol-4-yl)piperidin-1-yl)methyl)-5-((1-cyanocyclopropyl)methyl)nicotinic acid] was tested. Which EC50 did it give?
**A.** The EC50 was 1 to 100 nM.

**Q.** `N#CC1(Cc2cc(-c3nnc(C(F)(F)F)[nH]3)cnc2CN2CCN(c3ccc(Cl)c(OCc4ccc(Cl)cc4F)c3)CC2)CC1` [Example 42, 1-({2-[(4-{4-chloro-3-[(4-chloro-2-fluorophenyl)methoxy]phenyl}piperazin-1-yl)methyl]-5-[5-(trifluoromethyl)-4H-1,2,4-triazol-3-yl]pyridin-3-yl}methyl)cyclopropane-1-carbonitrile] was tested. Which EC50 did it give?
**A.** The EC50 was 1 to 100 nM.

**Q.** How did the EC50 turn out when `N#CC1(Cc2cc(-c3nnc(C(F)(F)F)[nH]3)cnc2CN2CCC(Oc3ccnc(Cc4ccc(Cl)cc4F)n3)CC2)CC1` [Example 86] was run?
**A.** The EC50 was 1 to 100 nM.

**Q.** With `N#CC1(Cc2cc(-c3nnc(C(F)(F)F)[nH]3)cnc2CN2CCN(c3ccnc(OCc4ccc(Cl)cc4F)n3)CC2)CC1` [Example 83] as the compound, how does the EC50 read?
**A.** The EC50 was 1 to 100 nM.

**Q.** Which EC50 does the source give for `CC1(c2ccc(Cl)cc2F)Oc2cccc(C3CCN(Cc4ncc(-c5nnc(C(F)(F)F)[nH]5)cc4CC4(C#N)CC4)CC3O)c2O1` (single isomer, unassigned) [Example 24, 1-[(2-{[(3,4-trans)-4-[2-(4-chloro-2-fluorophenyl)-2-methyl-2H-1,3-benzodioxol-4-yl]-3-hydroxypiperidin-1-yl]methyl}-5-[5-(trifluoromethyl)-4H-1,2,4-triazol-3-yl]pyridin-3-yl)methyl]cyclopropane-1-carbonitrile] here?
**A.** Its EC50 is under 1 nM.

**Q.** How did the EC50 turn out when `CC1(c2ccc(Cl)cc2F)Oc2cccc(C3CCN(Cc4ncc(-c5nnn[nH]5)cc4C(F)(F)F)CC3)c2O1` (stereo not drawn) [Example 98] was run?
**A.** Its EC50 is over 100 nM.

**Q.** For `C[C@]1(c2ccc(Cl)cc2F)Oc2cccc(C3CCN(Cc4ncc(-c5nnc(C(F)(F)F)[nH]5)cc4CS(C)(=O)=O)CC3)c2O1` [Example 55, 2-({4-[(2S)-2-(4-chloro-2-fluorophenyl)-2-methyl-2H-1,3-benzodioxol-4-yl]piperidin-1-yl}methyl)-3-(methanesulfonylmethyl)-5-[5-(trifluoromethyl)-4H-1,2,4-triazol-3-yl]pyridine], which EC50 is on record?
**A.** Its EC50 is under 1 nM.

**Q.** Which EC50 does the source give for `Cc1cc(-c2nnc(C(F)(F)F)[nH]2)cnc1CN1CCC(c2cccc(OCc3ccc(Cl)cc3F)n2)CC1` [Example 90] here?
**A.** Its EC50 is 1 to 100 nM.

**Q.** `C[C@]1(c2ccc(Cl)cc2F)Oc2c(F)ccc(C3CCN(Cc4ncc(-c5nnc(C(F)(F)F)[nH]5)cc4CC4(C#N)CC4)CC3F)c2O1` (single isomer, unassigned) [Example 29] was tested. Which EC50 did it give?
**A.** Its EC50 is under 1 nM.

**Q.** For `Cc1cc(CN2CCC(c3cccc4c3OC(C)(c3ccc(Cl)cc3F)O4)CC2)ncc1-c1nnn[nH]1` (stereo not drawn) [Example 96], which EC50 is on record?
**A.** Its EC50 is over 100 nM.

**Q.** For `CC1(c2ccccc2F)Oc2ccc(F)c(C3CCN(Cc4ncc(-c5nnc(C(F)(F)F)[nH]5)cc4CC4(C#N)CC4)CC3)c2O1` (stereo not drawn) [Example 80], which EC50 is on record?
**A.** Its EC50 is 1 to 100 nM.

**Q.** With `COCCc1cc(-c2nnc(C(F)(F)F)[nH]2)cnc1CN1CCC(c2cccc3c2O[C@@](C)(c2ccc(Cl)cn2)O3)CC1` [Example 89] as the compound, how does the EC50 read?
**A.** Its EC50 is 1 to 100 nM.

**Q.** How did the EC50 turn out when `N#CC1(Cc2cc(-c3nnc(C(F)(F)F)[nH]3)cnc2CN2CCC(c3cccc4c3OC[C@@H](c3ccc(Cl)cc3)O4)CC2)CC1` [Example 39, 1-{[2-({4-[(2R)-2-(4-chlorophenyl)-2,3-dihydro-1,4-benzodioxin-5-yl]piperidin-1-yl}methyl)-5-[5-(trifluoromethyl)-4H-1,2,4-triazol-3-yl]pyridin-3-yl]methyl}cyclopropane-1-carbonitrile] was run?
**A.** The EC50 was 1 to 100 nM.

**Q.** With `Cc1cc(Cl)ccc1C1(C)Oc2cccc(C3CCN(Cc4ncc(-c5nnc(C(F)(F)F)[nH]5)cc4CC4(C#N)CC4)CC3)c2O1` (stereo not drawn) [Example 7, 1-((2-((4-(2-(4-chloro-2-methylphenyl)-2-methylbenzo[d][1,3]dioxol-4-yl)piperidin-1-yl)methyl)-5-(5-(trifluoromethyl)-4H-1,2,4-triazol-3-yl)pyridin-3-yl)methyl)cyclopropane-1-carbonitrile] as the compound, how does the EC50 read?
**A.** The EC50 was under 1 nM.

**Q.** How did the EC50 turn out when `C[C@]1(c2ccc(Cl)cc2F)Oc2cccc(C3CCN(Cc4ncc(-c5nnc(C(F)(F)F)[nH]5)cc4CC4CCS4(=O)=O)CC3)c2O1` (stereo partly drawn) [Example 54, 2-{[2-({4-[(2S)-2-(4-chloro-2-fluorophenyl)-2-methyl-2H-1,3-benzodioxol-4-yl]piperidin-1-yl}methyl)-5-[5-(trifluoromethyl)-4H-1,2,4-triazol-3-yl]pyridin-3-yl]methyl}-1λ^6-thietane-1,1-dione] was run?
**A.** Its EC50 is 1 to 100 nM.

**Q.** For `CN1CCC(Cc2cc(-c3nnc(C(F)(F)F)[nH]3)cnc2CN2CCC(c3cccc4c3O[C@@](C)(c3ccc(Cl)cc3F)O4)CC2)C1=O` (stereo partly drawn) [Example 92], which EC50 is on record?
**A.** The EC50 was 1 to 100 nM.

**Q.** Which EC50 does the source give for `Cc1cc(-c2cnn(C)c2)cnc1CN1CCC(c2cccc(OCc3ccc(Cl)cc3F)n2)CC1` [Example 99] here?
**A.** The EC50 was over 100 nM.

**Q.** `COC1(Cc2cc(-c3nnc(C(F)(F)F)[nH]3)cnc2CN2CCC(c3cccc4c3O[C@@](C)(c3ccc(Cl)cc3F)O4)CC2)CC1` [Example 53, 2-({4-[(2S)-2-(4-chloro-2-fluorophenyl)-2-methyl-2H-1,3-benzodioxol-4-yl]piperidin-1-yl}methyl)-3-[(1-methoxycyclopropyl)methyl]-5-[5-(trifluoromethyl)-4H-1,2,4-triazol-3-yl]pyridine] was tested. Which EC50 did it give?
**A.** The EC50 was 1 to 100 nM.

**Q.** With `Cc1nc(-c2cnc(CN3CCC(c4cccc5c4OC(C)(c4ccc(Cl)cc4F)O5)CC3)c(C)c2)no1` (stereo not drawn) [Example 97] as the compound, how does the EC50 read?
**A.** Its EC50 is over 100 nM.

**Q.** For `N#CC1(Cc2cc(-c3nnc(C(F)(F)F)[nH]3)cnc2CN2CC=C(c3ccc(F)c(OCc4ccc(Cl)cc4F)c3)CC2)CC1` [Example 48, 1-({2-[(4-{3-[(4-chloro-2-fluorophenyl)methoxy]-4-fluorophenyl}-1,2,3,6-tetrahydropyridin-1-yl)methyl]-5-[5-(trifluoromethyl)-4H-1,2,4-triazol-3-yl]pyridin-3-yl}methyl)cyclopropane-1-carbonitrile], which EC50 is on record?
**A.** Its EC50 is 1 to 100 nM.

**Q.** How did the EC50 turn out when `N#CC1(Cc2cc(-c3nnc(C(F)(F)F)[nH]3)cnc2CN2CCC(c3cccnc3OCc3ccc(Cl)cc3F)CC2)CC1` [Example 37, 1-({2-[(4-{2-[(4-chloro-2-fluorophenyl)methoxy]pyridin-3-yl}piperidin-1-yl)methyl]-5-[5-(trifluoromethyl)-4H-1,2,4-triazol-3-yl]pyridin-3-yl}methyl)cyclopropane-1-carbonitrile] was run?
**A.** The EC50 was under 1 nM.

**Q.** `N#CC1(Cc2cc(-c3nnc(C(F)(F)F)[nH]3)cnc2CN2CCC(c3ccc(F)c(OCc4ccc(Cl)c5ccoc45)n3)CC2)CC1` [Example 63, 1-((2-((4-(6-((4-chlorobenzofuran-7-yl)methoxy)-5-fluoropyridin-2-yl)piperidin-1-yl)methyl)-5-(5-(trifluoromethyl)-4H-1,2,4-triazol-3-yl)pyridin-3-yl)methyl)cyclopropane-1-carbonitrile] was tested. Which EC50 did it give?
**A.** The EC50 was under 1 nM.
